Results on 28 molecules are retold here after patent publication US20040167131A1, “Inhibitors of factor Xa and other serine proteases involved in the coagulation cascade” (Pfizer Inc., priority 2002, published 2004).

Sequences and labels used below:
B1: Antistasin: a potent inhibitor of blood coagulation factor Xa from the Mexican leech, Haementeria officinalis (protein, UniProt P15358 18-136, looked up)
Antistasin: QGPFGPGCEEAGCPEGSACNIITDRCTCSGVRCRMHCPHGFQRSRYGCEFCKCRLEPMKATCDISECPEGMMCSRLTNKCDCKIDINCRKTCPNGLKRDKLGCEYCECRPKRKLIPRLS

T1 sequence (P00742 235-488 limits assumed): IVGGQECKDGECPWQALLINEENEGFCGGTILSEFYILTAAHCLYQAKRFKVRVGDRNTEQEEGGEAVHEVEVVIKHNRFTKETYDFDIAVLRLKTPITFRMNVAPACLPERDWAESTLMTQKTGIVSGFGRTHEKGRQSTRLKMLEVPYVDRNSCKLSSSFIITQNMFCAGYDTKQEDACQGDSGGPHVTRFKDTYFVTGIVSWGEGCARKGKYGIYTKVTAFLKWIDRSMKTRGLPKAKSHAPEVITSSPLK
T1 sequence (P00742 41-179 partner limits assumed): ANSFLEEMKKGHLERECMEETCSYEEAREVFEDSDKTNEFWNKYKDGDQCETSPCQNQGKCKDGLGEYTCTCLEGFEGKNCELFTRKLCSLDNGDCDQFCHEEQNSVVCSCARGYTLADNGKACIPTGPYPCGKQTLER

One assay concerns the target T1, human factor Xa (Homo sapiens, UniProt P00742).
T1 construct: purchased Enzyme Research Laboratories
As to the kind of experiment: Determination of Factor Xa IC50 (cleavage of fluorogenic substrate F-S2765). It is filed as biochemical. The following applies: 3 pM human factor Xa; read-out: FXa 3 pM IC50. On the procedure:
The ability of compounds to act as inhibitors of human factor Xa catalytic activity was assessed by determination of that concentration of test substance that inhibited by 50% (IC50) the ability of human factor Xa to cleave the fluorogenic substrate F-S2765 (N-α-Z-D-Arg-Gly-Arg-pNA HCl, California Peptide Research). […] The IC50 was determined at 3 pM and/or 30 pM concentrations of human factor Xa (Enzyme Research Laboratories). These concentrations were achieved by diluting a stock solution of human factor Xa in the appropriate amount of buffer containing 10 mM HEPES, 150 mM NaCl, and 0.1% BSA at pH 7.4 (HBSA buffer). Accordingly, 73 μL of the factor Xa/buffer solution was added to 2.5 μL of DMSO-reconstituted compound and incubated for 55 minutes at room temperature. After warming to 37° C. for am additional 5 minutes, 50 μL of rewarmed substrate was added and the IC50 determined by monitoring the increase in absorbance at 390 nm excitation/460 nm emission (455 nm cutoff) in a fluorometric plate reader or 30 minutes.
As for `CS(=O)(=O)c1ccccc1-c1ccc(NC(=O)C2(NC(=O)Nc3ccc(Cl)cc3)CC2)cc1` [Example 2, 1-[3-(4-Chloro-phenyl)-ureido]-cyclopropanecarboxylic acid (2′-methanesulfonyl-biphenyl-4-yl)-amide], the IC50 was found to be 33 nM.

`CS(=O)(=O)c1ccccc1-c1ccc(NC(=O)C2(NC(=O)Nc3ccc(Cl)cc3)CCCCC2)cc1` [Example 10, 1-[3-(4-Chloro-phenyl)-ureido]-cyclohexanecarboxylic acid (2′-methanesulfonyl-biphenyl-4-yl)-amide]: the 50% inhibitory concentration (IC50) is 16 nM. Same read-out and setting: the result for `CS(=O)(=O)c1ccccc1-c1ccc(NC(=O)C2(NC(=O)Nc3ccc(Cl)cc3)CC2)c(F)c1` [Example 3, 1-[3-(4-Chloro-phenyl)-ureido]-cyclopropanecarboxylic acid (3-fluoro-2′-methanesulfonyl-biphenyl-4-yl)-amide] reads 22 nM; that for `CC(C)(NC(=O)Nc1ccc(Cl)cc1)C(=O)Nc1ccc(-c2ccccc2S(C)(=O)=O)cc1F` [Example 7, 2-[3-(4-Chloro-phenyl)-ureido]-N-(3-fluoro-2′-methanesulfonyl-biphenyl-4-yl)-2-methyl-propionamide], 20 nM.

The assay is the same for the next values; noted with them: 30 pM human factor Xa; compound @ 1 μM.
On to `CN(C)CCN(CC(=O)Nc1ccc(-c2ccccc2S(C)(=O)=O)cc1F)C(=O)Nc1ccc(Cl)cc1` [Example 26, 2-[3-(4-Chloro-phenyl)-1-(2-dimethylamino-ethyl)-ureido]-N-(3-fluoro-2′-methanesulfonyl-biphenyl-4-yl)-acetamide], for which the “FxXa 30 pM, % @ 1 μM” value stood at 13.7% @ 1 μM. The same measure, in the same setting: the value for `CN(C(=O)NCC(=O)Nc1ccc(-c2ccccc2S(C)(=O)=O)cc1F)c1ccc(Cl)cc1` [Example 13, 2-[3-(4-Chloro-phenyl)-3-methyl-ureido]-N-(3-fluoro-2′-methanesulfonyl-biphenyl-4-yl)-acetamide] was 17% @ 1 μM; that for `CS(=O)(=O)c1ccccc1-c1ccc(NC(=O)CN(Cc2ccccc2)C(=O)Nc2ccc(Cl)cc2)c(F)c1` [Example 27, 2-[1-Benzyl-3-(4-chloro-phenyl)-ureido]-N-(3-fluoro-2′-methanesulfonyl-biphenyl-4-yl)-acetamide] was 30% @ 1 μM. For `CN(CC(=O)Nc1ccc(-c2ccccc2S(C)(=O)=O)cc1F)C(=O)N(C)c1ccc(Cl)cc1` [Example 14, 2-[3-(4-Chloro-phenyl)-1,3-dimethyl-ureido]-N-(3-fluoro-2′-methanesulfonyl-biphenyl-4-yl)-acetamide], the “FxXa 30 pM, % @ 1 μM” value turned out to be 18% @ 1 μM.

The same assay, now with this note: 30 pM human factor Xa; read-out: FxXa 30 pM IC50.
Regarding `O=C(Nc1ccc(Cl)cc1)N[C@@]1(C(=O)Nc2ccc(N3CCCCC3=O)cc2F)C[C@@H]1CO` [Example 19, (1S,2S)-1-[3-(4-Chloro-phenyl)-ureido]-2-hydroxymethyl-cyclopropanecarboxylic acid [2-fluoro-4-(2-oxo-piperidin-1-yl)-phenyl]-amide], the 50% inhibitory concentration (IC50) was 129 nM.

As for `CS(=O)(=O)c1ccccc1-c1ccc(NC(=O)[C@@]2(NC(=O)Nc3ccc(Cl)cc3)C[C@@H]2CO)c(F)c1` [Example 20, (1R,2S)-1-[3-(4-Chloro-phenyl)-ureido]-2-hydroxymethyl-cyclopropanecarboxylic acid (3-fluoro-2′-methanesulfonyl-biphenyl-4-yl)-amide], the IC50 came out at 35 nM. On the same count and under the same terms, the result for `NS(=O)(=O)c1ccccc1-c1ccc(NC(=O)C(CO)(CO)NC(=O)Nc2ccc(Cl)cc2)cc1` [Example 15, 2-[3-(4-Chloro-phenyl)-ureido]-3-hydroxy-2-hydroxymethyl-N-(2′-sulfamoyl-biphenyl-4-yl)-propionamide] reads 29 nM; that for `NS(=O)(=O)c1ccccc1-c1ccc(NC(=O)C2(NC(=O)Nc3ccc(Cl)cc3)CC2)c(F)c1` [Example 5, 1-[3-(4-Chloro-phenyl)-ureido]-cyclopropanecarboxylic acid (3-fluoro-2′-sulfamoyl-biphenyl-4-yl)-amide], 36 nM; that for `CC(C)CN(CC(=O)Nc1ccc(-c2ccccc2S(C)(=O)=O)cc1F)C(=O)Nc1ccc(Cl)cc1` [Example 25, 2-[3-(4-Chloro-phenyl)-1-isobutyl-ureido]-N-(3-fluoro-2′-methanesulfonyl-biphenyl-4-yl)-acetamide], 105 nM. The same measure, in the same setting: the result for `CC(C)(NC(=O)Nc1ccc(Cl)cn1)C(=O)Nc1ccc(-c2ccccc2S(C)(=O)=O)cc1F` [Example 8, 2-[3-(5-Chloro-pyridin-2-yl)-ureido]-N-(3-fluoro-2′-methanesulfonyl-biphenyl-4-yl)-2-methyl-propionamide] reads 287 nM; that for `COCCN(CC(=O)Nc1ccc(N2CCCCC2=O)cc1F)C(=O)Nc1ccc(Cl)cc1` [Example 29, 2-[3-(4-Chloro-phenyl)-1-(2-methoxy-ethyl)-ureido]-N-[2-fluoro-4-(2-oxo-piperidin-1-yl)-phenyl]-acetamide], 224 nM. Consider `NS(=O)(=O)c1ccccc1-c1ccc(NC(=O)C2(NC(=O)Nc3ccc(Cl)cc3)CC=CC2)c(F)c1` [Example 11, 1-[3-(4-Chloro-phenyl)-ureido]-cyclopent-3-enecarboxylic acid (3-fluoro-2′-sulfamoyl-biphenyl-4-yl)-amide], for which the IC50 is 66 nM.

For `NS(=O)(=O)c1ccccc1-c1ccc(NC(=O)C2(NC(=O)Nc3ccc(Cl)cc3)CCOCC2)c(F)c1` [Example 16, 4-[3-(4-Chloro-phenyl)-ureido]-tetrahydro-pyran-4-carboxylic acid (3-fluoro-2′-sulfamoyl-biphenyl-4-yl)-amide], the IC50 came out at 252 nM. On the same count and under the same terms, the result for `CC(C)(NC(=O)Nc1ccc(Cl)cc1)C(=O)Nc1ccc(-c2ccccc2S(N)(=O)=O)cc1F` [Example 9] reads 44 nM; that for `COCCN(CC(=O)Nc1ccc(-c2ccccc2S(C)(=O)=O)cc1F)C(=O)Nc1ccc(Cl)cc1` [Example 24, 2-[3-(4-Chloro-phenyl)-1-(2-methoxy-ethyl)-ureido]-N-(3-fluoro-2′-methanesulfonyl-biphenyl-4-yl)-acetamide], 26 nM; that for `CS(=O)(=O)c1ccccc1-c1ccc(NC(=O)[C@]2(NC(=O)Nc3ccc(Cl)cc3)C[C@@H]2CO)c(F)c1` [Example 18, (1S,2S)-1-[3-(4-Chloro-phenyl)-ureido]-2-hydroxymethyl-cyclopropanecarboxylic acid (3-fluoro-2′-methanesulfonyl-biphenyl-4-yl)-amide], 21 nM. Still for that read-out and setting: the result for `CS(=O)(=O)c1ccccc1-c1ccc(NC(=O)C2(NC(=O)Nc3ccc(Cl)cn3)CC2)c(F)c1` [Example 4, 1-[3-(5-Chloro-pyridin-2-yl)-ureido]-cyclopropanecarboxylic acid (3-fluoro-2′-methanesulfonyl-biphenyl-4-yl)-amide] reads 255 nM; that for `NS(=O)(=O)c1ccccc1-c1ccc(NC(=O)C2(NC(=O)Nc3ccc(Cl)cc3)CCSCC2)c(F)c1` [Example 17, 4-[3-(4-Chloro-phenyl)-ureido]-tetrahydro-thiopyran-4-carboxylic acid (3-fluoro-2′-sulfamoyl-biphenyl-4-yl)-amide], 65 nM; that for `CN(CC(=O)Nc1ccc(-c2ccccc2S(C)(=O)=O)cc1F)C(=O)Nc1ccc(Cl)cc1` [Example 12, 2-[3-(4-Chloro-phenyl)-1-methyl-ureido]-N-(3-fluoro-2′-methanesulfonyl-biphenyl-4-yl)-acetamide], 20 nM.

Take `NS(=O)(=O)c1ccccc1-c1ccc(NC(=O)C2(NC(=O)Nc3ccc(Cl)cn3)CC2)c(F)c1` [Example 6, 1-[3-(5-Chloro-pyridin-2-yl)-ureido]-cyclopropanecarboxylic acid (3-fluoro-2′-sulfamoyl-biphenyl-4-yl)-amide]: the IC50 is 192 nM. The same measure, in the same setting: the value for `CS(=O)(=O)c1ccccc1-c1ccc(NC(=O)C2(NC(=O)Nc3ccc(Cl)cc3)CCN(C(=O)OCc3ccccc3)C2)c(F)c1` (stereo not shown) [Example 22, 3-[3-(4-Chloro-phenyl)-ureido]-3-(3-fluoro-2′-methanesulfonyl-biphenyl-4-ylcarbamoyl)-pyrrolidine-1-carboxylic acid benzyl ester] was 175 nM.

In the case of `COc1ccc(CN(CC(=O)Nc2ccc(-c3ccccc3S(C)(=O)=O)cc2F)C(=O)Nc2ccc(Cl)cc2)cc1` [Example 28, 2-[3-(4-Chloro-phenyl)-1-(4-methoxy-benzyl)ureido]-N-(3-fluoro-2′-methanesulfonyl-biphenyl-4-yl)-acetamide], the IC50 was determined as 80 nM. Still for that read-out and setting: the value for `O=C(Nc1ccc(Cl)cc1)N[C@]1(C(=O)Nc2ccc(N3CCCCC3=O)cc2F)C[C@@H]1CO` [Example 21, (1R,2S)-1-[3-(4-Chloro-phenyl)-ureido]-2-hydroxymethyl-cyclopropanecarboxylic acid [2-fluoro-4-(2-oxo-piperidin-1-yl)-phenyl]-amide] was 140 nM.

System in the next assay: not given
Experiment: not given
The note with it: models of arterial and venous thrombosis; cited from earlier work.
With B1, the antithrombotic activity entry is listed as “displays antithrombotic activity”.

In general, IC50 refers to the point on the concentration scale where inhibition reaches its midpoint.
